Results taken from patent publication US12162935B2, “Regimens, compositions and methods with capsaicin and TNF-alpha inhibitor” (priority 2018, dated 2024).

Assays:
[1] = tested on: UB/OC-1 cells; test: Cell viability assay (MTS assay); format: cell-based; details: capsaicin 2.5 μM prior to cisplatin 20 μM
Description: The in vitro UB/OC1 cell proliferation was performed by using the CellTiter 96® AQueous One Solution Cell Proliferation Assay Kit (Promega, Madison, WI), according to the manufacturer's instructions. 3,500 cells were seeded per well into a 96-well plate. […] After 48 h, 20 μl of CellTiter 96 AQueous One Solution reagent was added to each well in 100 μl of total volume of media. Cells were incubated for 1 h, and recorded absorbance at 490 nm using an ELISA plate reader. The absorbance is directly proportional to the number of living cells and is expressed as a percent relative to vehicle-treated cells.

[2] = tested on: Wistar rats; test: Restoration of hearing after permanent threshold shifts (Example 10B); format: in vivo, rat; details: treatment after PTS at 4 weeks; oral capsaicin 5 mg/kg 3 days, ETA 1 mg/kg s.c. day 2, three weeks
Description: FIG. 23A is a schematic showing the experimental paradigm used in Example 10B. Pre-treatment baseline ABRs were performed in naïve male Wistar rats. The rats were then used either as sham controls (no noise exposure) or exposed-noise (122 dB, OBN centered at 16 kHz for 1 hour). Post noise exposure ABRs were repeated at 4 weeks to establish permanent threshold shifts (PTS). […] Final ABR threshold values were evaluated at week 9 post noise exposure.
Values shown in FIGS. 23A-23C and otherwise provided with respect to this Example 10B are expressed as the mean±SEM. Statistical significance was analyzed using the ANOVA and Tukey's host hoc analysis.

[3] = tested on: Wistar rats; test: ABR threshold shifts, noise induced hearing loss (NIHL); format: in vivo, rat
Description: Male Wistar rats (150-250 gm) were used for this study under an animal care protocol approved by the Laboratory and Animal Care and Use Committee (SIU School of Medicine). Pre-treatment ABRs were performed. Animals were then treated according to the experimental paradigm. Prevention strategy: consisted of administration of ETA either intra-tympanic ally (IT) (250 μg/50 μl) or subcutaneously (sc) (3 mg/kg) or PBS (IT-50 μl or sc-1 ml) either 3 days or 7 days prior to noise exposure (NE).
Animals were exposed to noise (NE), and then provided ETA treatments either IT or SC at either 2 h or 24 h post noise injury. Post treatment ABR thresholds were determined at 21 days post noise exposure and cochleae were excised for morphological, molecular and biochemical studies. Cochleae used for RNA preparations were flushed immediately with RNA later and kept in RNA later for 24 h at 4° C. Those used for immunohistochemical studies were perfused and fixed with 4% paraformaldehyde, while those used for Scanning electron microscopy (SEM) were perfused and fixed with 2.5% glutaraldehyde. Cochleae used for whole mounts were decalcified for 7-10 days in 100 mM EDTA at room temperature.
Male Wistar rats were exposed to octave band noise at 122 dB centered at 16 kHz for 1 h under isofluorane anesthesia, with the 3 inch silicon tubes attached to the high frequency transducer resting in the middle ear cavity. This exposure typically results in a 30-50 dB temporary threshold shift (measured as an immediate pre-to-post noise exposure shift in ABR thresholds) across all frequencies; with slightly more elevation at those frequencies around 16 kHz and 20-40 dB permanent threshold shift measured at 21 days post noise exposure at all frequencies. Acoustic stimuli are calibrated using a cloth model rat and a Bruel & Kjaer Pulse System with a ½ inch free-field microphone (B&K model 4191). Baseline noise levels in the test chamber (with background test noise turned off) are typically measured below 20 dB SPL in the 4-40 kHz range.
Pre-treatment ABR thresholds were determined using the high frequency Intelligent Hearing Systems (IHS) on naive rats prior to any treatment or noise exposure for each ear. Animals were tested with a stimulus intensity series that was initiated at 0 dB sound pressure level (SPL) and reached a maximum at 90 dB SPL. The stimulus intensity levels were increased in 10 dB increments, and the evoked ABR waveforms were observed on a video monitor. The auditory stimuli included tone bursts at 8, 16, and 32 kHz with a 10 msec plateau and a 1 msec rise/fall time presented at a rate of 5/sec. Threshold was defined as the lowest intensity capable of evoking a reproducible, visually detectable response with two distinct waveforms and minimum amplitude of 0.5 μV.
Preconditioning of the TRPV1 receptor in the rat cochlea by oral administration of capsaicin is shown here to protect from NIHL. Male Wistar rats weighing 200-250 gms were used. ABRs from naïve rats were recorded. Rats were then treated with oral phosphate buffered saline (PBS—1 ml) or capsaicin (1 ml of 20 mg/ml) starting 24 hrs prior to NE, on the day of NE, and 24 hrs post NE. The final ABRs were recorded 21 days post NE. Cochleae were collected for various biochemical tests and immunohistochemistry. At least 6 animals were used per treatment group. NE caused an ABR threshold shift of 21.6±1.7, 35.5±1.9 and 43.9±2.3 dB threshold shift at 8, 16 and 32 kHz respectively. Oral capsaicin treatment completely protects from NIHL (3.9±1.4, 6.1±1.8 and 8.9±2.1 dB threshold shift at 8, 16 and 32 kHz respectively), there is no significant change in ABR threshold shift compared to control. […] Statistical significance was calculated using one way ANOVA with Tukey's post-hoc analyses, p<0.05 (FIG. 16.A.).
ABR measurements were conducted in naïve male Wistar rats. […]

[4] = tested on: rat cochlea; test: Immunolabelling of mid-modiolar cochlear sections, fluorescent intensity analyses; format: in vivo
Description: Cochleae were perfused with a 4% paraformaldehyde solution, cochleae were decalcified for 7-10 days in 120 mM EDTA, embedded them in paraffin and then sectioned the specimens [Mukherjea et al., 2010]. Slides were deparaffined, rehydrated and then stained with primary and secondary antibodies. Glass coverslips were mounted on the specimens with ProLong Diamond mounting medium. Images were obtained using a Leica confocal microscope (Buffalo Grove, IL).
Image J software was used to analyze the mean gray area for the various images. These values were then used to quantify the increase or decrease in % fluorescence intensity of the various regions of the samples compared to control.

[5] = oral capsaicin 24 hrs prior, day of and 24 hrs post NE, 21 days post NE

SMILES: COc1cc(CNC(=O)CCCC/C=C/C(C)C)ccc1O [capsaicin, 8-methyl-N-vanillyl-trans-6-nonenamide]
- cisplatin-induced cell killing [1]: blocked cisplatin-induced cell killing
- average hearing threshold shifts at 9 weeks [2]: 15-25 dB
- Wave 1 amplitude versus sound intensity ([3]; capsaicin 5 mg/kg oral, ETA 1 mg/kg, noise exposure (FIG. 18.B)): partial restoration
- NE threshold shift ([3]; intra-tympanic or oral capsaicin, 21 days after NE): abrogated
- ABR threshold shift at 8 kHz [3, 5]: 3.9±1.4 dB
- ABR threshold shift at 16 kHz [3, 5]: 6.1±1.8 dB
- ABR threshold shift at 32 kHz [3, 5]: 8.9±2.1 dB
- ABR threshold shift at 8 kHz ([3]; oral capsaicin alone, no NE): 1±1.1 dB
- ABR threshold shift at 16 kHz ([3]; oral capsaicin alone, no NE): 1±1.1 dB
- ABR threshold shift at 32 kHz ([3]; oral capsaicin alone, no NE): 3±1.6 dB
- TRPV1, NOX3 and iNOS protein expression induced by cisplatin ([4]; capsaicin pre-treatment): significantly decreased
- CB2 expression in three regions of the cochleae ([4]; capsaicin pretreatment before cisplatin): significantly increased the expression of CB2
- p-STAT3/p-STAT1 ratio in cochlear regions ([4]; oral capsaicin pretreatment, compared to cisplatin): significantly increased
- CB2 labelling in the OHCs, SGs and SVA ([4]; single agent): increased CB2 labelling in all the three regions to an even greater extent
- TRPV1, NOX3 and iNOS labelling in the OHCs, SG and SVA ([4]; single agent vs control): did not produce significant change
- p-STAT3/p-STAT1 ratio in cochlear regions ([4]; single agent, 72 h, vs oral PBS): increased the p-STAT3/p-STAT1 ratio in all the three regions of the organ of Corti significantly
